Data set [1] relates to H22. The data set can be described thus: Antivascular activity against mouse H22 cells allografted in ICR mouse assessed as reduction in tumor microvessel density by measuring CD31-positive cells at 20 mg/kg, iv administered qd measured after 21 days by immunohistochemistry analysis. The class given is functional, organism-based. Particulars: time 21.0 day.
Data set [2] concerns HepG2. The data set is described as follows: Induction of G2/M phase cell cycle arrest in human HepG2 cells assessed as decrease in cyclin B1 protein expression at 7.5 to 30 nM measured after 24 hrs by western blot analysis. The following applies: dose 7.5-30 nM. The class given is functional, cell-based. Background: Immunoblotting shows a protein as a band on a membrane.
Data set [3] in a line: Metabolic stability in mouse liver microsomes assessed as metabolic bioavailability at 1 uM in presence of NADPH measured up to 60 mins by LC-MS/MS analysis. The class given is ADME, Microsome. For orientation: Liver microsomes are vesicles of endoplasmic reticulum, rich in cytochrome P450 enzymes.
Data set [4] can be described thus: Metabolic stability in mouse liver microsomes assessed as half life at 1 uM in presence of NADPH measured up to 60 mins by LC-MS/MS analysis. The data set is classed as ADME, Microsome.
Data set [5] in a line: Metabolic stability in mouse plasma assessed as compound remaining at 40 uM measured after 2 hrs by LC-MS/MS analysis (reference value: 100%). The data set is classed as ADME, cell-free.
A short description of data set [6]: Toxicity in ICR mouse allografted with mouse H22 cells assessed as effect on body weight at 20 mg/kg, iv administered qd measured after 21 days. Particulars: in vivo, 504 h, time 21 day. The class given is organism-based.
For the next data set, the target named is Histone deacetylase 2 (Homo sapiens, UniProt Q92769). The data set is described as follows: Inhibition of HDAC2 in human HepG2 cells assessed as increase in level of acetyl histone H3substrate incubated for 24 hrs by chemiluminescence based Western blotting analysis. The data set is classed as cell-based. Particulars: dose 0.03-0.3 µM.
A further data set has as its system Mus musculus. The data set is described as follows: In vivo inhibition of HDAC in ICR mouse allografted with mouse H22 cells assessed as upregulation of acetyl-histone H3 expression at 20 mg/kg, iv qd administered for 21 days measured after 24 hrs by Western blot analysis. The data set is classed as functional, organism-based. The following applies: time 21.0 day.

Data set [7] can be described thus: Toxicity in ICR mouse allografted with mouse H22 cells assessed as pathological changes in heart at 20 mg/kg, iv administered qd measured after 21 days by H and E staining based analysis. The data set is classed as organism-based. Particulars: in vivo, 504 h, time 21 day.
Data set [8] is described as follows: Antiproliferative activity against human HFL1 cells assessed as inhibition of cell growth measured after 72 hrs by MTT assay. The data set is classed as toxicity, cell-based.
In data set [9] the test system is H22. The data set can be described thus: Antivascular activity against mouse H22 cells allografted in ICR mouse assessed as inhibition of blood vessel formation at 20 mg/kg, iv administered qd measured after 21 days by immunohistochemistry analysis. The data set is classed as functional, organism-based. The following applies: time 21.0 day.
Data set [10] has as its system HepG2. The data set can be described thus: Induction of apoptosis in human HepG2 cells assessed as late apoptotic cells at 15 nM incubated for 48 hrs by Annexin-V/PI-staining based flow cytometry (reference value: 2.53 +/- 0.34%). The class given is functional.
The nature of data set [11]: Antiproliferative activity against HUVEC cells assessed as inhibition of cell growth measured after 24 hrs by MTT assay. The data set is classed as toxicity, cell-based. Particulars: human.
The next data set concerns PC-3. The data set is described as follows: Induction of apoptosis in human PC-3 cells assessed as mitochondrial membrane potential loss by measuring increase in green fluorescence at 7.5 nM incubated for 48 hrs by JC1 staining based flow cytometry analysis (reference value: 6.50 +/- 0.17%). The class given is functional.
Data set [12] is described as follows: Metabolic stability in mouse assessed as intrinsic clearance. The class given is ADME. Particulars: 1 h, 1 µM, time < 60 min.
In data set [13] the target is T1, Tubulin (Homo sapiens) (UniProt P68371+Q9H4B7+P0DPH7+P68366+Q13509+Q71U36+P04350+Q3ZCM7+P07437+P68363+Q9BQE3+Q6PEY2+Q13885+Q9BVA1+Q9BUF5). The data set is described as follows: Induction of microtubule disruption in human HepG2 cells assessed as loss of cellular structure at 7.5 to 30 nM measured after 2 hrs by DAPI staining based immunofluorescence microscopic assay. The data set is classed as cell-based. The following applies: dose 7.5-30 nM.

Data set [14] is described as follows: Toxicity in ICR mouse allografted with mouse H22 cells assessed as pathological changes in lung at 20 mg/kg, iv administered qd measured after 21 days by H and E staining based analysis. Particulars: in vivo, 504 h, time 21 day. The data set is classed as organism-based.
For data set [15], the target named is T2, Protein deacetylase HDAC6 (Homo sapiens, UniProt Q9UBN7).
T2 sequence (Q9UBN7 whole entry): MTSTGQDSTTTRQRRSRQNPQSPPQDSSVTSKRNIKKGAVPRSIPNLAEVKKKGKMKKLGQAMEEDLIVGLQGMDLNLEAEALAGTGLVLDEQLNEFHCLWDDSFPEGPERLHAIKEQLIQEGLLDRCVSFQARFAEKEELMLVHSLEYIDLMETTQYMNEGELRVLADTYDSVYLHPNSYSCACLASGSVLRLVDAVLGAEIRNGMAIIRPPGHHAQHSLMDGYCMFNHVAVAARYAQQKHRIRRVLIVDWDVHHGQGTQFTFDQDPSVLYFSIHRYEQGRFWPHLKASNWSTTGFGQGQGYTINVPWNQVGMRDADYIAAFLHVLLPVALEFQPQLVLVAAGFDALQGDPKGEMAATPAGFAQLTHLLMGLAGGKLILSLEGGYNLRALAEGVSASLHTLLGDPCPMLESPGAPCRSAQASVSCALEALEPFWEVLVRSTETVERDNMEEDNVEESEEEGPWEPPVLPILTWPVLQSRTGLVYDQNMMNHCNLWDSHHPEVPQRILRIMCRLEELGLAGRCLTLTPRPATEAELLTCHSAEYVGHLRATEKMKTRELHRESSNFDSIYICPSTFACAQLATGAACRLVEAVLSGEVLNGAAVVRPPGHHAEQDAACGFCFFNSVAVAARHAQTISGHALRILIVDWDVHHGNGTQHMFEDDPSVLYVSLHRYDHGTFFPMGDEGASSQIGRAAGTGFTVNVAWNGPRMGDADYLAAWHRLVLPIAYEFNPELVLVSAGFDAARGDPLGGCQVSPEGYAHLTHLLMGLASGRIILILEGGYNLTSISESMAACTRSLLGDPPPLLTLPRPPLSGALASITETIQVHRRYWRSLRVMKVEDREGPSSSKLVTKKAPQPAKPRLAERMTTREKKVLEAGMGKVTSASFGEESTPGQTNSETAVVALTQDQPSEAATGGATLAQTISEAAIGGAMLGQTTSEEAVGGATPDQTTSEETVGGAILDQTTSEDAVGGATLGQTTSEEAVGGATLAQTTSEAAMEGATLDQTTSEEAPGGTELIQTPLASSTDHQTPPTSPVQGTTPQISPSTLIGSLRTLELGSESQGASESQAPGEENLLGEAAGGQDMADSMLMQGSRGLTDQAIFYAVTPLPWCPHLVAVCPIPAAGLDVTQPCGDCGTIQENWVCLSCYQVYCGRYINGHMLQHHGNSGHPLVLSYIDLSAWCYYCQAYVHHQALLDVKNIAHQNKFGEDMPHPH
The data set is described as follows: Inhibition of HDAC6 in human HeLa cells using BOC-K(Ac)-AMC as substrate measured after 30 mins by fluorescence based microtiter plate reader assay. The data set is classed as cell-based.

The target in data set [16] is T1, Tubulin (Homo sapiens). The data set can be described thus: Inhibition of [3H]Colchicine binding to tubulin (unknown origin) at 1 uM measured after 2 hrs by scintillation counting method relative to control. The class given is protein-complex assay.
Data set [17] relates to HepG2. The data set can be described thus: Induction of apoptosis in human HepG2 cells assessed as upregulation of Bax protein expression measured after 24 hrs by Western blot analysis. The following applies: dose 7.5-30 nM, DDE = dose-dependent effect. The data set is classed as functional, cell-based.

The record followed here is ChEMBL document CHEMBL5137082, “Discovery of a Novel Vascular Disrupting Agent Inhibiting Tubulin Polymerization and HDACs with Potent Antitumor Effects” (J Med Chem, 2022).

Molecules are shown by their SMILES. The source made the active and inactive calls. No cut-off for these calls is given here.

Chain of Histone deacetylase 2 (Q92769 whole entry): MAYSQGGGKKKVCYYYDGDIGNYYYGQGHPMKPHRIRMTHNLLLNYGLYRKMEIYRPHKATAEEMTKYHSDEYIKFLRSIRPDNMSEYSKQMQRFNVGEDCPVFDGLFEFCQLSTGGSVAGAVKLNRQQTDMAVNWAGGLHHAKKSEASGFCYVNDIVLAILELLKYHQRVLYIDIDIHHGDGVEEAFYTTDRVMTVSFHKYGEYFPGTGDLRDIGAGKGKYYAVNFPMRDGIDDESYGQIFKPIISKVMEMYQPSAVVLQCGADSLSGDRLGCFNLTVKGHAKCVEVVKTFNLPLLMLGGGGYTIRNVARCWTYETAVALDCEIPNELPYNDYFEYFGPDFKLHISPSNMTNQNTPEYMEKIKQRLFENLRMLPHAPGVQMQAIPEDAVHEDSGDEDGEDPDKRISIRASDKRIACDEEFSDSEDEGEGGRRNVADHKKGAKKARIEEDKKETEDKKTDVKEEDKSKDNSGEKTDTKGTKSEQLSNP

With `COc1ccc(CNC(=O)c2cc(F)ccc2N2CCOCC2)cc1/C=C/C(=O)NO`, the outcome in the data set on H22 [1], with HepG2 [2], with H22 [9] and on Tubulin (Homo sapiens) [13] was Active. The Fh at 1 h, 1 µM in [3] worked out at 51.6%. Further, in data set [4], the half-life (as a rule, the time in which the quantity being followed falls by half) at 1 µM was found to be 50.3 min. Besides, the Stability in data set [5] was 30.7%. Besides, the Activity entry in [6] is “Non-Toxic”; in data set [7], “Non-Toxic”; in the data set with HepG2 [10], 6.36%; with PC-3 it was 23.22%; in [14] it was “Non-Toxic”; with HepG2 [17] it was “Dde”. In addition, the inhibition result at Histone deacetylase 2 and in the data set with Mus musculus was “Active” each time. Also, the IC50 (commonly the concentration at which inhibition is half-maximal) at 72 h in data set [8] stood at 13 nM. Besides, in data set [11], the IC50 at 24 h is 271 nM. Moreover, the CL in [12] came to 2.82 mL/min. This compound came in with an IC50 in data set [15] of 138 nM. The inhibition (commonly how much of the control response was suppressed) on Tubulin (Homo sapiens) [16] was 52.3%.
